Assay results from ChEMBL document CHEMBL1201862, “PubChem BioAssay data set” (2004).
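In this assay, cells in 96-well plates receive the compound at five concentrations for 48 hours. Endpoints are linearly interpolated between the surrounding concentrations. GI50 = concentration required for 50% inhibition of growth.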 The source made the active and inactive calls. Rule as the data show it: active = GI50 up to about 1.1 µM and inactive = higher.

Tests used:
Experiment in all cases: NCI tumour cell line growth inhibition, 48 h
[1] = test system: MOLT-4
[2] = test system: MCF7
[3] = test system: HOP-62
[4] = test system: NCI-H226
[5] = test system: OVCAR-8
[6] = test system: 786-0
[7] = test system: TK-10
[8] = test system: A549
[9] = test system: ACHN
[10] = test system: SR
[11] = test system: HCT-15
[12] = test system: A498
[13] = test system: UACC-257
[14] = test system: HCT-116
[15] = test system: SF-295
[16] = test system: MDA-MB-435
[17] = test system: NCI-H522
[18] = test system: CAKI-1
[19] = test system: K562
[20] = test system: HCC 2998

| Structure (SMILES) | GI50 [1] | GI50 [2] | GI50 [3] | GI50 [4] | GI50 [5] | GI50 [6] | GI50 [7] | GI50 [8] | GI50 [9] | GI50 [10] | GI50 [11] [µM] | GI50 [12] | GI50 [13] | GI50 [14] | GI50 [15] | GI50 [16] | GI50 [17] | GI50 [18] | GI50 [19] | GI50 [20] |
| --- | --- | --- | --- | --- | --- | --- | --- | --- | --- | --- | --- | --- | --- | --- | --- | --- | --- | --- | --- | --- |
| O=C(NCCN1CCCCC1)c1ccc(I)cc1 | > 100 µM (inactive) | > 100 µM (inactive) | > 100 µM (inactive) | > 100 µM (inactive) | > 100 µM (inactive) | > 100 µM (inactive) | > 100 µM (inactive) | > 100 µM (inactive) | > 100 µM (inactive) | > 100 µM (inactive) | > 100 | 24.8 µM (inactive) | > 100 µM (inactive) | > 100 µM (inactive) | > 100 µM (inactive) | > 100 µM (inactive) | > 100 µM (inactive) | > 100 µM (inactive) | > 100 µM (inactive) | > 100 µM (inactive) |
| CCOC(=O)c1sc2nc(SC)nc3c2c1NCN3c1ccc(F)c(F)c1 | > 55.2 µM (inactive) | 36 µM (inactive) | 12.1 µM (inactive) | 29.9 µM (inactive) | 5.27 µM (inactive) | 4.82 µM (inactive) | 22.6 µM (inactive) | 8.04 µM (inactive) | 6.97 µM (inactive) | > 21.5 µM (inactive) | 12.4 | 12.6 µM (inactive) | > 45.8 µM (inactive) | 9.02 µM (inactive) | 24.2 µM (inactive) | 6.81 µM (inactive) | 21.1 µM (inactive) | > 52.5 µM (inactive) | > 100 µM (inactive) | > 36.1 µM (inactive) |
| Oc1nc(S)nc2c1CN(CCCN1CCOCC1)CN2 | 28.2 µM (inactive) | 34.7 µM (inactive) | 30.9 µM (inactive) | > 100 µM (inactive) | 31 µM (inactive) | 40.4 µM (inactive) | 56.6 µM (inactive) | 38.6 µM (inactive) | 29.2 µM (inactive) | 28.4 µM (inactive) | 32 | > 100 µM (inactive) | 40.2 µM (inactive) | 34.4 µM (inactive) | 28.2 µM (inactive) | 22.5 µM (inactive) | 21.2 µM (inactive) | 30.4 µM (inactive) | 67.9 µM (inactive) | 21.9 µM (inactive) |
| COc1ccc(C(c2c[nH]c3ccc(Br)cc23)c2c[nH]c3ccc(Br)cc23)cc1 | 0.142 µM (active) | 0.21 µM (active) | 0.411 µM (active) | 0.938 µM (active) | 0.22 µM (active) | 0.215 µM (active) | 0.993 µM (active) | 0.346 µM (active) | 0.24 µM (active) | 0.151 µM (active) | 0.214 | 1.04 µM (active) | 0.29 µM (active) | 0.149 µM (active) | 0.313 µM (active) | 0.172 µM (active) | 0.173 µM (active) | 0.382 µM (active) | 0.167 µM (active) | 0.181 µM (active) |
| COc1ccc(OC)c([N+](=O)[O-])c1-c1nc2sc(Cl)cn2c1/C=N/N=C(N)N | 4.9 µM (inactive) | 9.89 µM (inactive) | 55.8 µM (inactive) | 18.2 µM (inactive) | 19.2 µM (inactive) | 42.9 µM (inactive) | 25.2 µM (inactive) | 23.2 µM (inactive) | 28.6 µM (inactive) | 14.2 µM (inactive) | 41.2 | 14.1 µM (inactive) | 19.3 µM (inactive) | 58.3 µM (inactive) | 24.9 µM (inactive) | 17.5 µM (inactive) | 16.6 µM (inactive) | 17.1 µM (inactive) | 7.53 µM (inactive) | 12.7 µM (inactive) |
| O=C1C(NCCO)=C(N2CC2)C(=O)C(NCCO)=C1N1CC1 | 12.2 µM (inactive) | > 100 µM (inactive) | 27.4 µM (inactive) | 57.5 µM (inactive) | 37.1 µM (inactive) | 24.4 µM (inactive) | > 100 µM (inactive) | 44.5 µM (inactive) | 30.8 µM (inactive) | 16.8 µM (inactive) | 57.5 | > 100 µM (inactive) | > 74.3 µM (inactive) | 29.6 µM (inactive) | 26.5 µM (inactive) | > 100 µM (inactive) | 31.3 µM (inactive) | 85.9 µM (inactive) | 39.5 µM (inactive) | > 100 µM (inactive) |
| COc1cccc(CCNc2c(C#N)c3nc4ccccc4n3c3ccccc23)c1 | 0.769 µM (active) | 0.0775 µM (active) | 10.5 µM (inactive) | 1.58 µM (inactive) | 0.807 µM (active) | 0.541 µM (active) | 4.6 µM (inactive) | 1.33 µM (inactive) | 0.998 µM (active) | 0.177 µM (active) | 0.423 | 0.592 µM (active) | 0.851 µM (active) | 0.405 µM (active) | 0.364 µM (active) | 0.118 µM (active) | 0.063 µM (active) | 1.05 µM (active) | 0.141 µM (active) | 0.643 µM (active) |
| COc1cc2c[n+](C)c3c4cc(OC)c(OCc5ccccc5)cc4c(OCc4ccccc4)cc3c2cc1OC | 2.54 µM (inactive) | 3.93 µM (inactive) | 13.8 µM (inactive) | 2.26 µM (inactive) | 6.85 µM (inactive) | 13.2 µM (inactive) | 23.3 µM (inactive) | 30 µM (inactive) | > 75.2 µM (inactive) | 1.4 µM (inactive) | 97.9 | 48 µM (inactive) | 2.9 µM (inactive) | 3.76 µM (inactive) | 25.7 µM (inactive) | 1.74 µM (inactive) | 0.416 µM (active) | 35.2 µM (inactive) | 1.28 µM (inactive) | 11.7 µM (inactive) |
| CC(C)(C)C1=CC(=C2C=Cc3cc(O)ccc3O2)C=C(C(C)(C)C)C1=O | 0.435 µM (active) | 1.07 µM (active) | 1.92 µM (inactive) | 1.85 µM (inactive) | 1.7 µM (inactive) | 1.36 µM (inactive) | 1.7 µM (inactive) | 1.5 µM (inactive) | 1.69 µM (inactive) | 0.731 µM (active) | 1.79 | 1.5 µM (inactive) | 1.57 µM (inactive) | 1.17 µM (inactive) | 1.87 µM (inactive) | 1.5 µM (inactive) | 1.48 µM (inactive) | 1.62 µM (inactive) | 2.13 µM (inactive) | 1.26 µM (inactive) |
| COc1cc2c(cc1OCCN1C(=O)c3cccc4cccc(c34)C1=O)N=C[C@@H]1CCCN1C2=O | 1.01 µM (active) | 6.59 µM (inactive) | 21.5 µM (inactive) | 7.26 µM (inactive) | 8.57 µM (inactive) | 7.96 µM (inactive) | 8.05 µM (inactive) | 8.65 µM (inactive) | 8.07 µM (inactive) | > 100 µM (inactive) | 9.31 | 9.04 µM (inactive) | 9.44 µM (inactive) | 7.66 µM (inactive) | 13.7 µM (inactive) | 10.7 µM (inactive) | 1.17 µM (inactive) | 7.5 µM (inactive) | 1.15 µM (inactive) | 7.74 µM (inactive) |
| CC1CC[C@@]2(OC1)O[C@H]1C[C@H]3[C@@H]4CC[C@H]5C[C@@H](OC6OC(CO)C(OC7OC(CO)C(OC8OC(CO)C(O)C(OC9OC(C)C(OC%10OC(C)C(O)C(O)C%10O)C(O)C9O)C8OC8OCC(O)C(O)C8O)C(O)C7O)C(O)C6O)CC[C@]5(C)[C@H]4CC(=O)[C@]3(C)[C@H]1[C@@H]2C (stereo not given in full) | 18.1 µM (inactive) | 17.7 µM (inactive) | 21.4 µM (inactive) | 18.8 µM (inactive) | 20.7 µM (inactive) | 22.4 µM (inactive) | 17.7 µM (inactive) | 23.2 µM (inactive) | 17.2 µM (inactive) | 14.6 µM (inactive) | 19.1 | 18.2 µM (inactive) | 18.2 µM (inactive) | 23.4 µM (inactive) | 23.9 µM (inactive) | 18.7 µM (inactive) | 23.7 µM (inactive) | 15.6 µM (inactive) | 16.7 µM (inactive) | 18.7 µM (inactive) |
| CC1=NN=C(N)NC1=CC(Sc1ccc(Cl)cc1)c1c(O)ccc2ccccc12 (stereo not given) | 21.1 µM (inactive) | 20 µM (inactive) | 20.2 µM (inactive) | 4.55 µM (inactive) | 16.7 µM (inactive) | 25.5 µM (inactive) | 26.5 µM (inactive) | 28.9 µM (inactive) | 5.16 µM (inactive) | 17.4 µM (inactive) | 16.3 | 18.7 µM (inactive) | 20.9 µM (inactive) | 18.9 µM (inactive) | 4.21 µM (inactive) | 19.6 µM (inactive) | 15.5 µM (inactive) | 23.7 µM (inactive) | 38.5 µM (inactive) | 16.7 µM (inactive) |
| O=C(CC(Cc1ccccc1)c1ccc(Oc2ccccc2)cc1)Nc1cccc(Cl)c1 (stereo not given) | 3.69 µM (inactive) | 3.42 µM (inactive) | 3.83 µM (inactive) | 7.48 µM (inactive) | 3.96 µM (inactive) | 5.43 µM (inactive) | 10 µM (inactive) | 3.9 µM (inactive) | 3.65 µM (inactive) | 4.94 µM (inactive) | 3.64 | 4.47 µM (inactive) | 11 µM (inactive) | 3.6 µM (inactive) | 3.24 µM (inactive) | 4.32 µM (inactive) | 3.1 µM (inactive) | 3.66 µM (inactive) | 3.34 µM (inactive) | 3.27 µM (inactive) |
| CN(C1=NCCO1)c1cccc2c1CCCC2 | 1.77 µM (inactive) | 4.51 µM (inactive) | 7.08 µM (inactive) | 1.44 µM (inactive) | 5.3 µM (inactive) | 3.17 µM (inactive) | 3.23 µM (inactive) | 4.26 µM (inactive) | 3.18 µM (inactive) | 1.21 µM (inactive) | 3.48 | 3.71 µM (inactive) | 3.92 µM (inactive) | 2.99 µM (inactive) | 4.35 µM (inactive) | 3.64 µM (inactive) | 4.16 µM (inactive) | 3.6 µM (inactive) | 4.78 µM (inactive) | 3.79 µM (inactive) |
